Experiments:
[1] = molecular target: purified human TDO protein (Homo sapiens (Human), UniProt P48775); assay: Enzymatic TDO assay; type: biochemical
Method: Differently from the IDO activity assay, no methylene blue is added to the assay. The inhibitors were initially diluted in DMSO at 100 mM and were diluted in potassium phosphate 50 mM, added to the reaction mixture at final concentrations raging from 300 μM to 5 nM and preincubated with the enzyme for 5 min at 25° C. The reaction was started by addition of L-tryptophan to 200 μM and incubated 15 min at 37° C. The reaction was stopped by addition of 0.5 vol of 30% trichloroacetic acid and incubated 30 min at 60° C. to hydrolyze N-formylkynurenine to kynurenine. The reaction was centrifuged at 3400 g for 5 min to remove precipitated protein and the supernatant was reacted with 2% (w/v) of p-dimethylaminobenzaldehyde in acetic acid. The reaction was incubated 10 min at 25° C. and read at 480 nm in a spectrophotometer. Control samples with no TDO inhibitor, or with no TDO enzyme were used as controls to set the parameters for the non-linear regressions necessary for determination of the IC50 for each compound. Nonlinear regressions and determination of the IC50 values were performed using the GraphPad Prism 4 software.

[2] = molecular target: purified human IDO protein (Homo sapiens (Human), UniProt P14902); assay: Enzymatic IDO assay; type: biochemical
Sequence of purified human IDO protein (P14902 whole entry P110S/E119G, the tested form may be a part): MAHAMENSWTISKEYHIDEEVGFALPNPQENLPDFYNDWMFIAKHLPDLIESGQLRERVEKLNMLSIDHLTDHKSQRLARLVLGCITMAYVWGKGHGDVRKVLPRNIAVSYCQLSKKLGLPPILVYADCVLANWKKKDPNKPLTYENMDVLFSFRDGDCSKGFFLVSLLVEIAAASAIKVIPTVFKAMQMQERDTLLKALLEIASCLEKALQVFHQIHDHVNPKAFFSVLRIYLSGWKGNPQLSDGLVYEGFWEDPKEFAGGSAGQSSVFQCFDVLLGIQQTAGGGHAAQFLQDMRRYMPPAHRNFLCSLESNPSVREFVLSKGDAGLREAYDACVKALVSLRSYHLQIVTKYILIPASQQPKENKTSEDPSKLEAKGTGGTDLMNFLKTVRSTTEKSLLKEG
Method: Expression vectors for human indoleamine-2,3-dioxygenase (IDO) protein were prepared by amplification of a 1219 bp fragment of the sequence present in vector phIDO6His cDNA with primers 5′-ggagcatgcta[…]-3′ (SEQ ID NO: 1) and 5′gagagatct[…]-3′ (SEQ ID NO: 2) and cloning the SphI-BglII 1213 bp fragment into pQE70 (Qiagen), to yield vector pQE70-hIDO. This construct adds 2 extra amino acids and a 6-Histidine tag to the C-terminus of the natural human IDO protein while preserving intact the natural start codon and N-terminus amino acid sequence.
Plasmid pQE70-hIDO was transformed into M15(pREP4) cells (Qiagen) and clones were selected in LB-agar plates supplemented with carbenicillin 50 μg/mL and kanamycin 30 μg/mL. Protein expression was carried out by growing an overnight culture of the M15pREP4/pQE70-hIDO clone in 100 mL LB supplemented with 100 μg/mL carbenicillin, 50 μg/mL kanamycin and 50 μg/mL of L-tryptophan (LBCKT medium). 40 mL of this culture were inoculated into 750 mL of LBCKT for 4 hours at 37° C. This culture was diluted 1:10 into LBCKT medium and cultured for another 2 hours at 37° C. until OD600 was higher than 0.8. At this point the cultures were inoculated with Hemin to 7 μM and L-Tryptophan to 75 μg/mL and incubated at 37° C. for 2 h. Induction of protein expression was carried out by supplementing the cultures with IPTG to 1 mM, PMSF to 200 μM, EDTA to 1 mM and L-tryptophan to 50 μg/mL. Incubation was continued for additional 16 h at 25° C. Cells were collected by centrifugation, and the cell pellets were washed with PBS buffer supplemented with 200 μM PMSF and 1 mM EDTA and stored at −80° C. until protein purification.
The equivalent of 16 L of culture were processed in one batch of purification. Cell pellets were thawed, resuspended in 50 mM potassium phosphate buffer pH 7.0, 200 μM PMSF, 1 mM EDTA, 1 mg/mL lysozyme to 10 mL per liter of bacterial culture and incubated 30 minutes on ice. Cells were then lysed by sonication. Cell lysates were centrifuged 20 min at 20000 g and the supernatant was filtered through 0.45 μm filters. The filtered supernatant was loaded onto a 60 mL phosphocellulose column equilibrated with 50 mM potassium phosphate buffer pH 6.5 (KPB) at 1-3 mL/min. The column was washed with 3 volumes of 50 mM KPB, 3 volumes of 100 mM KPB and the protein was eluted with 15 volumes of a linear gradient of 100-500 mM KPB. Fractions were collected and IDO activity assay was performed by measuring kynurenine production. This was carried out by mixing 50 μL of each fraction with 100 μL of reaction mix to yield a final concentration of 50 mM KPB buffer, 20 mM ascorbic acid, 200 μg/mL catalase, 20 μM methylene blue and 400 μM L-tryptophan. […] Collected fractions were assayed by IDO enzymatic assay described above and the positive fractions were pooled and concentrated by ultrafiltration and dialyzed against a buffer containing 250 mM KPB, 50% glycerol.
The inhibitors were initially diluted in DMSO at 100 mM and were diluted in potassium phosphate 50 mM, added to the reaction mixture at final concentrations raging from 1 mM to 5 nM and preincubated with the enzyme for 5 min at 25° C. The reaction was started by addition of L-tryptophan to 200 μM and incubated 15 min at 37° C. The reaction was stopped by addition of 0.5 vol of 30% trichloroacetic acid and incubated 30 min at 60° C. to hydrolyze N-formylkynurenine to kynurenine. The reaction was centrifuged at 3400 g for 5 min to remove precipitated protein and the supernatant was reacted with 2% (w/v) of p-dimethylaminobenzaldehyde in acetic acid. The reaction was incubated 10 min at 25° C. and read at 480 nm in a spectrophotometer.

Sequence of purified human TDO protein (P48775 whole entry): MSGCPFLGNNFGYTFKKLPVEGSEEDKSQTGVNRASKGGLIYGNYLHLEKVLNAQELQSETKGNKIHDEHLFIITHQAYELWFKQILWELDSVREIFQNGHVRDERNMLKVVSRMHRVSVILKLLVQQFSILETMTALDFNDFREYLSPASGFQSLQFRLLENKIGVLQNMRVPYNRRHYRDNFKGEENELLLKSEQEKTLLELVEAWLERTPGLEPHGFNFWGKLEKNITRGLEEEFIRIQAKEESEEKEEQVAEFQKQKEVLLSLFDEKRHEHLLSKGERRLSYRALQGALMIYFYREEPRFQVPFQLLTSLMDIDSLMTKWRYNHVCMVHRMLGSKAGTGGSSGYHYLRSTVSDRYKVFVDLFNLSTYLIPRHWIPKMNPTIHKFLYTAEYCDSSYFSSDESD

| SMILES | IC50 [1] [µM] | IC50 [2] [µM] |
| --- | --- | --- |
| OC(CC1c2ccccc2-c2cnnn21)C1CCCCC1 (centres unmarked) [Compound 66, 2-(8H-[1,2,3]triazolo[5,1-a]isoindol-8-yl)-1-cyclohexylethan-1-ol] | 10 to 100 | 10 to 100 |
| OC(CC1c2ccccc2-n2cncc21)C1CCCCC1 (centres unmarked) [Compound 70, 1-cyclohexyl-2-(9H-imidazo[1,5-a]indol-9-yl)ethan-1-ol] | < 1 | – |
| OC(CC1c2ccccc2-c2cnnn21)C1CCC(F)(F)CC1 (centres unmarked) [Compound 68, 2-(8H-[1,2,3]triazolo[5,1-a]isoindol-8-yl)-1-(4,4-difluorocyclohexyl)ethan-1-ol] | 1 to 10 | 10 to 100 |
| O=C(CC1c2ccccc2-c2cnnn21)C1CCC(F)(F)CC1 (centres unmarked) [Compound 54, 2-(8H-[1,2,3]triazolo[5,1-a]isoindol-8-yl)-1-(4,4-difluorocyclohexyl)ethan-1-one] | > 100 | > 100 |
| O=C(CC1c2ccccc2-c2cnnn21)C1CCCCC1 (centres unmarked) [Compound 53, 2-(8H-[1,2,3]triazolo[5,1-a]isoindol-8-yl)-1-cyclohexylethan-1-one] | 10 to 100 | 10 to 100 |
| O=C(CC1c2ccccc2-n2cncc21)C1CCCCC1 (centres unmarked) [Compound 27, 1-cyclohexyl-2-(9H-imidazo[1,5-a]indol-9-yl)ethan-1-one] | < 1 | 1 to 10 |
| O=C(CC1c2ccccc2-c2nncn21)C1CCCCC1 (centres unmarked) [Compound 43, 2-(5H-[1,2,4]triazolo[3,4-a]isoindol-5-yl)-1-cyclohexylethan-1-one] | > 100 | > 100 |
| c1ccc2c(c1)Cc1cn[nH]c1-2 [Compound 101] | 1 to 10 | > 100 |
| OC(CC1c2ccccc2-c2nncn21)C1CCCCC1 (centres unmarked) [Compound 69, 2-(5H-[1,2,4]triazolo[3,4-a]isoindol-5-yl)-1-cyclohexylethan-1-ol] | > 100 | > 100 |
